# From US11446244B2 (priority 2020, dated 2022)
# Entries after “also recorded” stand apart in the source; their conditions may differ.
# Columns and labels:
# Glioblastoma multiforme = assay: Example 12: glioblastoma multiforme patient case, Verteporfin nasal and oral inhalation; format: in vivo; conditions: 15 mg two puffs twice daily, six weeks
# Protocol: The patient had standard of care treatment that included surgical resection, radiation and chemotherapy, but then had recurrence and is not candidate for surgical curative intent.
# Immunohistochemistry at the 2nd operation is positive for PD-L1 and the patient is started on Verteporfin 15 mg two puffs twice daily both nasal and oral for the next six weeks. […] Here, drug delivery via intravenous route is avoided and possible direct brain delivery via nasal pathway is enabled. Here, systematic delivery of the drug by both nasal and oral inhalation is contemplated.
# [1] = cited from earlier work
# [2] = biological target: YAP1 (yes-associated protein 1) (Homo sapiens, UniProt P46937); conditions: cited from earlier work
# Sequence of YAP1 (yes-associated protein 1) (P46937 whole entry): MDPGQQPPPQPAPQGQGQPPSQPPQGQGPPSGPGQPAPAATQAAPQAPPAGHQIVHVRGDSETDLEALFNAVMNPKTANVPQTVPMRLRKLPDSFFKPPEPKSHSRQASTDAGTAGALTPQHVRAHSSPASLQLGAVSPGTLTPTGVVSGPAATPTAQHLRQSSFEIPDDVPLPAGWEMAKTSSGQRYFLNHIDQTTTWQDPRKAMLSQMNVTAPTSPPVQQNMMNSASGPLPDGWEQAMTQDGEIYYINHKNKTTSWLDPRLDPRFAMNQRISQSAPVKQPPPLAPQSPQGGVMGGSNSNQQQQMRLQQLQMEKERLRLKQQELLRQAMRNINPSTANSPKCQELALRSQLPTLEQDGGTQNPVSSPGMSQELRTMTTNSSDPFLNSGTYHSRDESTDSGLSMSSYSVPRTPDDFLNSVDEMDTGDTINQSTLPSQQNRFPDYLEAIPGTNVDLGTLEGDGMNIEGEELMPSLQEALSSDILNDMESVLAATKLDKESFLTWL
# [3] = Example 11: interstitial pulmonary fibrosis patient case, Verteporfin; format: in vivo; conditions: 15 mg 1 p BID
# Source text: A nonsmoker farmer has a diagnosis of interstitial pulmonary fibrosis with progressive symptoms over the past 6 months and with reduction in FVC by Pulmonary Function testing. […] Here also, Verteporfin combined with inhaled Perflubron nintedanib may be given. Subsequent or concomitant PDT and/or SDT promotes the elimination of myofibroblasts/macrophages that are otherwise engaged in fibrosis.
# [4] = lipophilic solvents such as perfluorocarbons like perflubron; cited from earlier work
# [5] = intravenous administration; cited from earlier work
# lung metastases = assay: Example 9: osteosarcoma lung metastasis patient case, Gemcitabine dpi; format: in vivo; conditions: Gemcitabine 60 dpi BID
# Source text: 2 months later, after standard chemoradiotherapy is completed, they are found to have three 1-cm lung metastases. […] undergoes second line treatment but the lesions progress, so they are started on Gemcitabine 60 dpi BID and has stabilization for 12 months thereafter. Here also, Verteporfin, Ribavirin, and/or Gemcitabine dpi could all be given together coupled with inhaled or intravenous Perflubron (emulsion).
# Coronavirus = assay: Example 7: coronavirus infection patient case, Ribavirin dpi; format: in vivo; conditions: dpi 60 mg twice daily for 6 days, started after 2 days of fever
# Protocol: A nonsmoker having no previous lung disease develops symptoms of fever for 2 days and is then immediately started on Ribavirin dpi 2 p or 60 mg twice daily for 6 days. […] They avoid hospitalization and thereby avoids what may have been up to an increased 15-20% risk. Verteporfin and Gemcitabine dpi could be substituted for the Ribavirin.
# [6] = in vivo; cited from earlier work
# nsp14 = nsp14 (Severe acute respiratory syndrome coronavirus, UniProt P0C6X7); conditions: cited from earlier work
# SARS-CoV-2 = conditions: patients with severe COVID-19; intravenous Ribavirin versus supportive care only; cited from earlier work
# SARS-CoV = conditions: BALB/c mice; cited from earlier work
# [7] = Example 8: COPD and bilateral pneumonia/ARDS patient case, acetylcysteine dpi; format: in vivo; conditions: dpi every 4 hours with a bronchodilator
# Protocol: A smoker with history of moderate chronic obstructive pulmonary disease (COPD) mixed type who has been diagnosed with acute respiratory distress syndrome (ARDS) secondary to bilateral pneumonia. The patient has a very productive cough but not expectorating significant secretions and is currently on high flow system 70% FIO2 (fraction of inspired oxygen). […] The patient is initiated on acetylcysteine dpi every 4 hours along with a bronchodilator (e.g., DUONEB albuterol and ipratropium).
compound,measurement,setting,value
Verteporfin,tumor mass,Glioblastoma multiforme,overall reduction in tumor mass
same,extent of exposure and maximal plasma concentration versus dose,[1]; dose between 6-20 mg/m^2,proportional to the dose
same,serum half-life,[1]; in vivo,5 to 6 h
same,YAP1 inhibition,[2],inhibits YAP1
same,effect on lung decline,[3],stabilizing effect on lung decline
same,solubility,[4],soluble in lipophilic solvents
Nc1ccn([C@@H]2O[C@H](CO)[C@@H](O)C2(F)F)c(=O)n1 [Gemcitabine],warning label adverse effects,[5],can suppress bone marrow function
same,duration of stabilization of lung metastases,lung metastases,12 months
NC(=O)c1ncn([C@@H]2O[C@H](CO)[C@@H](O)[C@H]2O)n1 [Ribavirin],clinical outcome (symptoms),Coronavirus,symptomatic improvement
same,hemoglobin concentrations,[6],reduces hemoglobin concentrations
same,excision of Ribavirin by exonuclease activity of nsp14,nsp14,can efficiently excise
same,negative conversion time for SARS-CoV-2 test,SARS-CoV-2,not associated with improved negative conversion time; also recorded: not associated with reduced negative conversion time
same,SARS-CoV infection in treated mice,SARS-CoV,increased SARS-CoV1 infection
"CC(=O)N[C@@H](CS)C(=O)O [acetylcysteine, N-acetyl cysteine]",clinical outcome (need for mechanical ventilation),[7],avoid mechanical ventilation
